Calls of active or inactive are those of the source.
Key:
[1] = test system: HT-1080; experiment: HT1080 cell viability loss – fluorescence readout (AID 620); format: functional, cell-based; conditions: Homo sapiens
[2] = target: Luciferin 4-monooxygenase (Photinus pyralis, UniProt P08659); experiment: Counter Screen for Luciferase-based Assay Positives. [Related pubchem assays: 620, 618, 411 ]
[3] = test system: Streptococcus; experiment: GAS UMAA2166 growth inhibition – luminescence, BacTiterGlo, counter-screen for streptokinase expression inhibitor project, dose response (AID 1915); format: functional, organism-based;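 also: potency for reduction of bacterial viability or growth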
[4] = test system: Streptococcus sp. 'group A'; experiment: Streptococcus pyogenes SK(-)GAS viability under kanamycin – luminescence, BacTiterGlo, confirmation, counter-screen for streptokinase expression inhibitor project, dose response (AID 1900); format: functional, organism-based
[5] = target: T1, Streptokinase A (Streptococcus pyogenes serotype M1, UniProt P10520); experiment: viability-normalized secreted streptokinase activity reduction – plasminogen activation absorbance, OD405, dose response (AID 1914); format: functional, Streptococcus pyogenes M1 GAS;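 also: secreted streptokinase activity via plasminogen activation per viability signal from cell pellet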
T1 sequence (P10520 whole entry): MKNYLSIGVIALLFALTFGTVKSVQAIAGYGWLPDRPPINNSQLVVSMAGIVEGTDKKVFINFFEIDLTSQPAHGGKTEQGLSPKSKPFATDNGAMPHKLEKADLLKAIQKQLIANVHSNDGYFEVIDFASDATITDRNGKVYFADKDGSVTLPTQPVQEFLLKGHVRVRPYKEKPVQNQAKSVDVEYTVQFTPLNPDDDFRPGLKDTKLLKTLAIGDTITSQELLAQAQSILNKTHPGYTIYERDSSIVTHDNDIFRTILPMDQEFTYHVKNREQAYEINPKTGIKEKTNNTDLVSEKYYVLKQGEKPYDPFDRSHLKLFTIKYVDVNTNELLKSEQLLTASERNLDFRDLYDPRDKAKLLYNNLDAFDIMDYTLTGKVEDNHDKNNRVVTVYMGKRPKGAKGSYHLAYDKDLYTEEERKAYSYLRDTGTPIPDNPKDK

[6] = test system: Streptococcus; experiment: Luminescence Microorganism-Based Dose Response Follow up to Identify Compounds Cytotoxic to Streptococcus. [Related pubchem assays: 1677 (Project Summary), 1915, 1914, 1902 (Retest at Dose), 1900 (Counter Screen), 1662 (Primary HTS)]; format: functional, organism-based
[7] = target: T2, Hexokinase HKDC1 (Homo sapiens, UniProt Q2TB90); experiment: inhibition of HKDC1 glucose phosphorylation – biochemical, W721R variant, dose response (AID 504729); format: functional
T2 sequence (Q2TB90 whole entry): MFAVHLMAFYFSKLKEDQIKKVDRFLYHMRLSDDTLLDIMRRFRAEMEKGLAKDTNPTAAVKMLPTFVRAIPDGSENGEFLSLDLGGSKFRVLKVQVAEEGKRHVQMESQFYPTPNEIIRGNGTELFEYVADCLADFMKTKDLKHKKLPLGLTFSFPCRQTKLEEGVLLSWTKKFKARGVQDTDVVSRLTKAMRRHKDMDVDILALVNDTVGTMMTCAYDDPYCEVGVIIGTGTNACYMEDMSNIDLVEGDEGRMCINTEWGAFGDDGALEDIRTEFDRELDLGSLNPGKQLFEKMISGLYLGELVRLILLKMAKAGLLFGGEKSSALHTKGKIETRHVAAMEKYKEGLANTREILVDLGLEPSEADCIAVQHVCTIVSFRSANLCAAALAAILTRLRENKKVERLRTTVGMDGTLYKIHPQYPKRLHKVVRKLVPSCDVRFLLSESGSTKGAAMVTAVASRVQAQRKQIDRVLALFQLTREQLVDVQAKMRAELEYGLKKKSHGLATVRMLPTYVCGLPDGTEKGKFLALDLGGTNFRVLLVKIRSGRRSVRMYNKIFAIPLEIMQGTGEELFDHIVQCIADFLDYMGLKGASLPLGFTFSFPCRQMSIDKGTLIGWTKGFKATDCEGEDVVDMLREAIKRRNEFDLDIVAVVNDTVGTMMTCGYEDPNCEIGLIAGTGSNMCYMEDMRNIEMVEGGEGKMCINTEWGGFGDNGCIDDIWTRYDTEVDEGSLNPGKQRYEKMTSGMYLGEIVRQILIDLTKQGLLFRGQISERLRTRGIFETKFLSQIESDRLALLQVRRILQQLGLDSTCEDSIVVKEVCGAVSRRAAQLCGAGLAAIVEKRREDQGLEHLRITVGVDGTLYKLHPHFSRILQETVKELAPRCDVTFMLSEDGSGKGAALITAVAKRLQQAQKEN

[8] = general mammalian cell viability loss – activator set, cherry-pick, cytotoxicity control for miR-122 modulator project, dose response (AID 720690); format: functional, cell-based;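 also: HEK293T human cells scored for general mammalian cytotoxicity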
[9] = target: Oxytocin receptor (Homo sapiens, UniProt P30559); experiment: Fluorescence-based cell-based high throughput dose response assay for agonists of the Oxytocin Receptor (OXTR). [Related pubchem assays: 2435 (Primary screen (OXTR agonists in singlicate)), 434991 (Counterscreen (V1R agonists in triplicate)), 2482 (Summary (OXTR agonists)), 434963 (Confirmation screen (OXTR agonists in triplicate))]; format: functional
[10] = target: T3, Microphthalmia-associated transcription factor (Homo sapiens, UniProt O75030); experiment: reducers of TRPM1 reporter luminescence, concentration series – cell-based, SK-MEL-5, cherry-picked, set 3, MITF inhibitor project, dose response (AID 493073); format: functional;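 also: SK-MEL-5 melanoma cells with luciferase driven by the MITF target TRPM1 promoter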
T3 sequence (O75030 whole entry): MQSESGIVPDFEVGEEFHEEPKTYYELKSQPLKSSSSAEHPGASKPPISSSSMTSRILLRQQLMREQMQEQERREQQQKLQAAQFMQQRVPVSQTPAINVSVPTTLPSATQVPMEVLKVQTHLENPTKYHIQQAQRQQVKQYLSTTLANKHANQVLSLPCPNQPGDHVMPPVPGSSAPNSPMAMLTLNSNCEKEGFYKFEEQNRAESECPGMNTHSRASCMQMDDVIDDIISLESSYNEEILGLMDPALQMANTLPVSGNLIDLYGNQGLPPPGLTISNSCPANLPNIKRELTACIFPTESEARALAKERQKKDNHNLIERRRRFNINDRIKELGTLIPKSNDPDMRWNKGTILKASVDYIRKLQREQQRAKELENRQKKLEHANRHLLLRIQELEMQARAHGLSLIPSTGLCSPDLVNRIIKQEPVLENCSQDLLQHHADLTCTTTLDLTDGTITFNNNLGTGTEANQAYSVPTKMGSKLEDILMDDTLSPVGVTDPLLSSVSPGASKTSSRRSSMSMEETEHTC

[11] = test system: A-375; experiment: MITF: Counter assay: A375 proliferation Measured in Cell-Based System Using Plate Reader - 2084-03_Inhibitor_Dose_DryPowder_Activity. [Related pubchem assays (depositor defined):AID488944]; format: functional; conditions: Homo sapiens
[12] = activation of miR-122 Renilla sensor silencing – cell-based, Huh7 psiCHECK-miR122, Renilla luciferase, cherry-picked, dose response (AID 651956); format: functional;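 also: huh7 hepatoma cells stably carrying a psiCHECK-2 miR-122 sensor plasmid; renilla luciferase signal reporting endogenous miR-122 activity after 48 h compound exposure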
[13] = target: Vasopressin V1a receptor (Homo sapiens, UniProt P37288); experiment: Counterscreen for Oxytocin Receptor (OXTR) agonists: Fluorescence-based cell-based high throughput dose response assay to identify agonists of the vasopressin 1 receptor (V1R). [Related pubchem assays: 2435 (Primary screen (OXTR agonists in singlicate)), 434991 (Counterscreen (V1R agonists in triplicate)), 2482 (Summary (OXTR agonists)) …; format: functional
[14] = target: T4, Tyrosine-protein phosphatase non-receptor type 7 (Homo sapiens, UniProt P35236); experiment: SAR analysis of chemical inhibitors of HePTP using a Fluorescent assay - Set 2. [Related pubchem assays (depositor defined):AID1059, AID1077, AID1661, AID2085, AID521]; format: functional
T4 sequence (P35236 whole entry): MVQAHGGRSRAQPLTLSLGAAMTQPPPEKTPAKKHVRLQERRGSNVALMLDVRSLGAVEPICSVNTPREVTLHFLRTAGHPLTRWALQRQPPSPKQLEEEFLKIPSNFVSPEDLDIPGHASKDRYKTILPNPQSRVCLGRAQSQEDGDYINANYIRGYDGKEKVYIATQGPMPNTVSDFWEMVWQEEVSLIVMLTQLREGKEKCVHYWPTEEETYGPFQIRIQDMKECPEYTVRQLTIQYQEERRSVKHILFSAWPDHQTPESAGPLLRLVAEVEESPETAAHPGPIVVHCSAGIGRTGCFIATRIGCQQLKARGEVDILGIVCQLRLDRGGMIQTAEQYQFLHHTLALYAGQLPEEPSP

[15] = target: Dual specificity protein phosphatase 3 (Homo sapiens, UniProt P51452); experiment: SAR VHR1 Fluorescent Assay for In Vitro dose response studies Set 2. [Related pubchem assays (depositor defined):AID1654, AID1661, AID1878]; format: functional
[16] = luciferase reporter signal suppression in cells – H4 neuroglioma cells, luminescence, dose response (AID 1990); format: functional, cell-based
[17] = alpha-synuclein stem-loop luciferase translation blockers – H4 neuroglioma cells, luminescence, confirmation (AID 1988); format: functional, cell-based
[18] = Luminescence Cell-Based Dose Response HTS to Identify Inhibitors of 5'UTR Stem-Loop Driven Prion Protein mRNA Translation in H4 Neuroglioblastoma Cells. [Related pubchem assays: 1827 (Project Summary), 1813 (Primary HTS)]; format: functional
[19] = HEK-293T cell viability reduction – luminescence, B-cell screen hits, cytotoxicity control for BCR NF-kB inhibitor project, dose response (AID 489021); format: functional, cell-based;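 also: HEK-293T cells carrying an NF-kB luciferase reporter; cells exposed to compound for about 14 hours before viability readout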
[20] = target: Cytochrome P450 3A4 (Homo sapiens, UniProt P08684); conditions: Potency;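 also: confirmatory qHTS run detecting inhibitors and substrates of CYP3A4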
Sequence of Cytochrome P450 3A4 (P08684 whole entry): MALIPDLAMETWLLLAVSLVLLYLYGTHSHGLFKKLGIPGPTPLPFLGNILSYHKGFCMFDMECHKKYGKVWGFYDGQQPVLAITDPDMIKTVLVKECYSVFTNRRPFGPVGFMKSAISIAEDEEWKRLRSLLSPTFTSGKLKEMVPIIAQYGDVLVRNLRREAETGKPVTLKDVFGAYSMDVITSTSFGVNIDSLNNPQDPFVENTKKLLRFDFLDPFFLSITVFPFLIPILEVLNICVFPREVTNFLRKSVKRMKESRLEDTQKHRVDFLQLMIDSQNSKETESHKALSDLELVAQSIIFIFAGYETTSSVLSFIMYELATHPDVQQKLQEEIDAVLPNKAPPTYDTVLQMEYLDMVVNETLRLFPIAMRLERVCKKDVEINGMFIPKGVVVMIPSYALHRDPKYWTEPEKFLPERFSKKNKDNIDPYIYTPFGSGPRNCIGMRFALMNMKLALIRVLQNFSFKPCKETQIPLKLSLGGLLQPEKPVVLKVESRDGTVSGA

Sequence of Dual specificity protein phosphatase 3 (P51452 whole entry): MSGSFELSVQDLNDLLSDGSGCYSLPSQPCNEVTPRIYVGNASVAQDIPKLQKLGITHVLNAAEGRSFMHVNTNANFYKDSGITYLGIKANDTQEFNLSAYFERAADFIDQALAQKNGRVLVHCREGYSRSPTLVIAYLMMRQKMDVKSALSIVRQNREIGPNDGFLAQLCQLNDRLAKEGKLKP
Sequence of Oxytocin receptor (P30559 whole entry): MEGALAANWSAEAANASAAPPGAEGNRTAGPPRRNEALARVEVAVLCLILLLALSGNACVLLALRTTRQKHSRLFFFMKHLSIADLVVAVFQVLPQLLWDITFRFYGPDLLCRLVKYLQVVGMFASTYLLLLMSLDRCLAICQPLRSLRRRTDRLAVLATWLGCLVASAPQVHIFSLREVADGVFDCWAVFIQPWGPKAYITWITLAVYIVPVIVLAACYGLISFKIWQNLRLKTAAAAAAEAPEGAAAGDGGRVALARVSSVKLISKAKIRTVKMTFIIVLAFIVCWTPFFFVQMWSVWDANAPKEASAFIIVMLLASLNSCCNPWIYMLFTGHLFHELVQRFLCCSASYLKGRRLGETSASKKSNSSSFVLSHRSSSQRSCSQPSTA
Sequence of Vasopressin V1a receptor (P37288 whole entry): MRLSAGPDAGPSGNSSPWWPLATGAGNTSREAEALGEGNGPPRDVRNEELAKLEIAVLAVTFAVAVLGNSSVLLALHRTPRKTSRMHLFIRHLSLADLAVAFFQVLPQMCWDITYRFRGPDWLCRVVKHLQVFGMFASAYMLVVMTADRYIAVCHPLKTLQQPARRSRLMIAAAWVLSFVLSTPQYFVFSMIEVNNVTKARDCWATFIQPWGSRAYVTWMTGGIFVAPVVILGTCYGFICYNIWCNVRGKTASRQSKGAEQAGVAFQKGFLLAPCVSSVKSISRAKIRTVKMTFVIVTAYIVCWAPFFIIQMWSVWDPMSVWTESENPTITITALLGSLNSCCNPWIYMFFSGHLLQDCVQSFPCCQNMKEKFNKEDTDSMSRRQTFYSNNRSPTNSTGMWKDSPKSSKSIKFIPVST
Sequence of Luciferin 4-monooxygenase (P08659 whole entry): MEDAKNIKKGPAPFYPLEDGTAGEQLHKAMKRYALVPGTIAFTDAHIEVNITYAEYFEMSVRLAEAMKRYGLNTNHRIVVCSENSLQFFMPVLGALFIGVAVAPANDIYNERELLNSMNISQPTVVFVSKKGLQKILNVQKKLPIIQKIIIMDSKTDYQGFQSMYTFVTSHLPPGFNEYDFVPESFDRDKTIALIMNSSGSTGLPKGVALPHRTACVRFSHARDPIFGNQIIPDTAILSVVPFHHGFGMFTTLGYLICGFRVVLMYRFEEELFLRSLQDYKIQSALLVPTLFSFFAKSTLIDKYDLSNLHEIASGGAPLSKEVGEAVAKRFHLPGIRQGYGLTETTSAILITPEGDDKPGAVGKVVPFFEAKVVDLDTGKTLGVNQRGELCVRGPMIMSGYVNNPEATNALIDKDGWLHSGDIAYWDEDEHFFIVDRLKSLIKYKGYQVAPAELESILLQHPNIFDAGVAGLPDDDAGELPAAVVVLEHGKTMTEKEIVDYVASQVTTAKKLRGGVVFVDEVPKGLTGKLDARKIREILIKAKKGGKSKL

COc1ccc(-n2ncc3c(NCC(C)C)ncnc32)cc1
EC50 [1]: > 50 µM (not active) | EC50 [2]: 1.17 µM (active)

CCN(CC)C(=S)SCC(=O)Nc1nc(-c2ccccc2)c(-c2ccccc2)o1
EC50 [3]: > 150 µM (not active) | EC50 [4]: 7.26 µM (active) | EC50 [5]: 8.54 µM (active) | EC50 [6]: > 500 µM (not active)

COc1ccc(NC(=O)CSc2ccc(-c3cccnc3)nn2)c(OC)c1
IC50 [7]: 17.8 µM (active)

N=c1n(CC(=O)c2ccc(Br)s2)c2ccccc2n1Cc1ccccc1
AC50 [8]: 11.4 µM (active) | EC50 [9]: 14.8 µM (not active) | AC50 [10]: 7.34 µM (active) | AC50 [11]: 19.7 µM (active) | AC50 [12]: 10.9 µM (active) | EC50 [13]: 15.1 µM (not active)

COc1cc(C(=S)NCc2cccc(C(F)(F)F)c2)ccc1O
IC50 [14]: 55 µM (active) | IC50 [15]: 47 µM (active)

O=c1ccc2nccc3c4c(O)cccc4n1c23
EC50 [16]: 12.7 µM (active) | EC50 [17]: 11.9 µM (active) | EC50 [18]: 9.94 µM (active) | IC50 [19]: > 80 µM (inactive)

CC(C)=CCOc1cc2oc(=O)ccc2cc1O [PRENYLETIN]
AC50 [20]: 39.8 µM (inconclusive)

Reference: ChEMBL document CHEMBL1201862, “PubChem BioAssay data set” (2004)
